Experimental data as given in ChEMBL document CHEMBL1201862, “PubChem BioAssay data set” (2004).
The source made the active and inactive calls.

How the values were obtained:
[1] = biological target: T1, RNA-binding protein pos-1 (Caenorhabditis elegans, UniProt G5EF15); assay: inhibitors of POS-1/mex-3 RNA binding, dose response, biochemical, fluorescence polarization (AID 1964);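 also: purified POS-1 fused to maltose binding protein made in E. coli; potency of compounds blocking POS-1 binding to fluorescent RNA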
T1 sequence (G5EF15 whole entry): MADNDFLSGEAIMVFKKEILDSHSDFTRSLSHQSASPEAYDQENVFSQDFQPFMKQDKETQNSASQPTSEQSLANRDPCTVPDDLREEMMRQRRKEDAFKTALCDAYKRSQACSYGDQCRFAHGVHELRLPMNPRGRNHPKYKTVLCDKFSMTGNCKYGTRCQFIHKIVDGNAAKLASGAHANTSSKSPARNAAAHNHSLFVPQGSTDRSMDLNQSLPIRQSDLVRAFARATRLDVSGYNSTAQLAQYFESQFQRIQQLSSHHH

[2] = biological target: T2, Zinc finger protein mex-5 (Caenorhabditis elegans, UniProt Q9XUB2); assay: MEX-5/TCR-2 RNA interaction inhibitors, dose response, biochemical, C. elegans, fluorescence polarization (AID 1960)
T2 sequence (Q9XUB2 whole entry): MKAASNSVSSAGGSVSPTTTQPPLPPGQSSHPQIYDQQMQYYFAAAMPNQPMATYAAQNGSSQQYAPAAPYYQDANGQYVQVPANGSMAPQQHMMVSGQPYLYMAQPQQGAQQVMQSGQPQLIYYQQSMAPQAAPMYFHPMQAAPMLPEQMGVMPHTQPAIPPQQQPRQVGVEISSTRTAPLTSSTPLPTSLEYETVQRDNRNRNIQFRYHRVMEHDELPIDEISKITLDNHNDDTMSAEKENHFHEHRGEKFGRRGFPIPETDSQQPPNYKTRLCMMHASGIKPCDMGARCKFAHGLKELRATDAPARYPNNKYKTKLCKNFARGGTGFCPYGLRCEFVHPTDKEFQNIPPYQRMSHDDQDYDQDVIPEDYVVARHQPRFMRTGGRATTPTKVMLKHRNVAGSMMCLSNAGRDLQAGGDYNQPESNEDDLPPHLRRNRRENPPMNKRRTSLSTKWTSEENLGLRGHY

[3] = biological target: T3, Cytochrome P450 1A2 (Homo sapiens, UniProt P05177);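 also: PubChem cytochrome P450 panel assay, CYP1A2 panel member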
T3 sequence (P05177 whole entry): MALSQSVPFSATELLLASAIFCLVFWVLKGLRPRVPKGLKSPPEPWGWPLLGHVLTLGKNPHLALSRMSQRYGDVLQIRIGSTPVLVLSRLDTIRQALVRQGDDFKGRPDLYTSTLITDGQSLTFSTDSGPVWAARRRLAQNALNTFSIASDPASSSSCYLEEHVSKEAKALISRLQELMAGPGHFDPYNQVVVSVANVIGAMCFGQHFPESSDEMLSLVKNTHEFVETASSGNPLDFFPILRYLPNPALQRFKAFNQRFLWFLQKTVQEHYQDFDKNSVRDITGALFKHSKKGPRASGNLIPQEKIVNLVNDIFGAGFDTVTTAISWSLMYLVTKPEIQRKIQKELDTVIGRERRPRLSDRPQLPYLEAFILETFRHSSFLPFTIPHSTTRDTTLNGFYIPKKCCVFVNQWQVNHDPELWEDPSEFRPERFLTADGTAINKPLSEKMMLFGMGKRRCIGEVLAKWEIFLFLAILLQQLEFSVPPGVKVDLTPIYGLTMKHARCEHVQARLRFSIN

[4] = biological target: Cytochrome P450 2C19 (Homo sapiens, UniProt P33261); assay: Cytochrome panel assay with activity outcomes. Panel member name: p450-cyp2c19 Compounds with AC50 equal or less than 10 uM are considered active; format: functional; conditions: read-out: AC50
Chain of Cytochrome P450 2C19 (P33261 whole entry): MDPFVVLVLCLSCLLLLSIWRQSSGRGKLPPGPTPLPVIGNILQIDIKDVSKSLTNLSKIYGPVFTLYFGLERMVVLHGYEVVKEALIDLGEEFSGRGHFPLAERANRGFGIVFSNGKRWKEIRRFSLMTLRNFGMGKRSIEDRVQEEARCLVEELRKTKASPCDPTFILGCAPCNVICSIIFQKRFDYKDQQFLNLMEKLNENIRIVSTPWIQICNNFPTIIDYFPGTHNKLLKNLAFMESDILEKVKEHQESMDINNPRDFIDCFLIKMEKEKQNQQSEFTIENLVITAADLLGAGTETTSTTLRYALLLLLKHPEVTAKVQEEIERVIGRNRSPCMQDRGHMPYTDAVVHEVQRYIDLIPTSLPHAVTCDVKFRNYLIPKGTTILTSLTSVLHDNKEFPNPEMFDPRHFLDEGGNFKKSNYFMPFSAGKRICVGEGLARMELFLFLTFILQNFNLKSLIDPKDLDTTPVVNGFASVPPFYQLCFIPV

[5] = biological target: Cytochrome P450 3A4 (Homo sapiens, UniProt P08684);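 also: CYP3A4 tested as one member of a cytochrome P450 panel screen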
Chain of Cytochrome P450 3A4 (P08684 whole entry): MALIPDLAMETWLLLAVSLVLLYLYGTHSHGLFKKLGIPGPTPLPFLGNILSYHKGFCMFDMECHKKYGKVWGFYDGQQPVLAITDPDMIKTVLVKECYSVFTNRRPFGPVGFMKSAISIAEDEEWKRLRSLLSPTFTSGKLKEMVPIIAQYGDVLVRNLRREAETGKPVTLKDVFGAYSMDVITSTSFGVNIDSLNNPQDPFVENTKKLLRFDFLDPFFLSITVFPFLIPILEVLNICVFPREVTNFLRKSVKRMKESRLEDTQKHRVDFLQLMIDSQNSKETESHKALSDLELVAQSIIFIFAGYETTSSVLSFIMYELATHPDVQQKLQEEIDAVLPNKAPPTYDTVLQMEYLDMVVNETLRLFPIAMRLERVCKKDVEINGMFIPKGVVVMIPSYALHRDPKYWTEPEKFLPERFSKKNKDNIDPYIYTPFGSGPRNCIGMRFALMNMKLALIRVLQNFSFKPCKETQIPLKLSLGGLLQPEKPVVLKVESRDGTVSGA

[6] = biological target: Cytochrome P450 2C9 (Homo sapiens, UniProt P11712)
Chain of Cytochrome P450 2C9 (P11712 whole entry): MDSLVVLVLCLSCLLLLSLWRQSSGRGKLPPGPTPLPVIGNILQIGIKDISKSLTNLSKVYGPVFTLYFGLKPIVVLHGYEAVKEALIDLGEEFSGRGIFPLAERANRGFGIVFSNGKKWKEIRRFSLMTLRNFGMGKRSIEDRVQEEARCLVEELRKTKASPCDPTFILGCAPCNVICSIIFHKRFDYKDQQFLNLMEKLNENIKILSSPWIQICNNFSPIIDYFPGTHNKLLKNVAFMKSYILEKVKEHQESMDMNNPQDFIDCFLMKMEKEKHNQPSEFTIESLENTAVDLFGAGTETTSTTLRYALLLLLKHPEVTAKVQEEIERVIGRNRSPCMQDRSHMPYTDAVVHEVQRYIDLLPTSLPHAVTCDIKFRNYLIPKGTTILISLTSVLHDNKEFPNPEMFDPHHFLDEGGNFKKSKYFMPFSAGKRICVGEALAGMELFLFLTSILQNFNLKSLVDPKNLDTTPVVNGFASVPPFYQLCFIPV

[7] = biological target: T4, Replicative DNA helicase DnaB (Mycobacterium tuberculosis, UniProt P9WMR3); assay: DnaB intein splicing inhibitors, dose response, biochemical, cell-free fluorescence (AID 449749); format: functional
T4 sequence (P9WMR3 whole entry): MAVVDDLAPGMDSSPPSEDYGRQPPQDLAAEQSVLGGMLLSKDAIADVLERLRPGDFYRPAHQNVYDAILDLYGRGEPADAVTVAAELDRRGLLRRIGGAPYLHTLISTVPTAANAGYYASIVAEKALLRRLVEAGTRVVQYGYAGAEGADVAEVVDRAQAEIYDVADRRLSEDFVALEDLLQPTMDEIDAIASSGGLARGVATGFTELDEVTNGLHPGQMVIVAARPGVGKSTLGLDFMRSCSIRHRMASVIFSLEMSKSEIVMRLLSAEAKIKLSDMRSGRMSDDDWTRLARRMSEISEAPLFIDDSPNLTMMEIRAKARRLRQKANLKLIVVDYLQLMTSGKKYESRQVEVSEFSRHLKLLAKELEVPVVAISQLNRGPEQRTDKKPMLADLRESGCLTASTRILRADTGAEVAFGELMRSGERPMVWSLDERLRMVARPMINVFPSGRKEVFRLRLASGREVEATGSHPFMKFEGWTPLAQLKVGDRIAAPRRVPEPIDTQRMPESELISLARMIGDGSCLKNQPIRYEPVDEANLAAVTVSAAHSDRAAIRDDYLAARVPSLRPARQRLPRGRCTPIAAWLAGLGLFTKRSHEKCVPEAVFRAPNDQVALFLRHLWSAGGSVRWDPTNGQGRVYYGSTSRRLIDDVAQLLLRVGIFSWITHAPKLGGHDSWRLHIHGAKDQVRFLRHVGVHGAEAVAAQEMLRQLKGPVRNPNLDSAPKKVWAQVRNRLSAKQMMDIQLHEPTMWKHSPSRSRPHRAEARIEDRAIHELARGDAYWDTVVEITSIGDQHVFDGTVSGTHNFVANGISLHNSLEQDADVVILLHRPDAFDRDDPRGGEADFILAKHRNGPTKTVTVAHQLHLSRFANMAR

[8] = biological target: T5, Protein RecA (Mycobacterium tuberculosis, UniProt P9WHJ3); assay: Fluorescence Cell-Free Homogeneous Dose Retest to Identify Inhibitors of RecA-Intein Splicing Activity. [Related pubchem assays (depositor defined):AID2097, AID2223, AID489010, AID492950]; format: functional
T5 sequence (P9WHJ3 whole entry): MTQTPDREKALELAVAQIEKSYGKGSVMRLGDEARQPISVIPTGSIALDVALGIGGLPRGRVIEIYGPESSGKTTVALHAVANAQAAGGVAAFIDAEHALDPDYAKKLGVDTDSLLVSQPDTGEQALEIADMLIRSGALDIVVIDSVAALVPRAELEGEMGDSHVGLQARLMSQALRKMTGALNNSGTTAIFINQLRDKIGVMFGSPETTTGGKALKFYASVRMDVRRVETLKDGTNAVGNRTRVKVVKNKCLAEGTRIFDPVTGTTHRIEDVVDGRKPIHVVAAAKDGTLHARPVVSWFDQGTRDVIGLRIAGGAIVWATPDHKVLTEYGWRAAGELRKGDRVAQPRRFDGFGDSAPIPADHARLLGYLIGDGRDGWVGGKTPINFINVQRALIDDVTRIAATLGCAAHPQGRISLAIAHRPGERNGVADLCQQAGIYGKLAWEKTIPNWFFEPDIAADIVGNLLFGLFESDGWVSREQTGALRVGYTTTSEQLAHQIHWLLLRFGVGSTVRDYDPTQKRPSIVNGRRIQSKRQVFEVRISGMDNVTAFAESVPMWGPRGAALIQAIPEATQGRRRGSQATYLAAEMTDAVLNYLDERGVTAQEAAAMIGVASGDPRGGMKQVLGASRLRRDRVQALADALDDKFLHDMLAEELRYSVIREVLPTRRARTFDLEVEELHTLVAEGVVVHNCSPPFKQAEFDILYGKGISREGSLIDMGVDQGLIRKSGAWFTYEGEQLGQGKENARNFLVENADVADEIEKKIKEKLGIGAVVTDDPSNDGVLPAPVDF

[9] = system: H4; assay: Luminescence Cell-Based Dose Response HTS to Identify Activators of 5'UTR Stem-Loop Driven Prion Protein mRNA Translation in H4 Neuroglioblastoma Cells. [Related pubchem assays: 1829 (Project Summary), 1814 (Primary HTS)]; format: functional; conditions: Homo sapiens

## COC(=O)CCCC1=CC2=CC(=O)C(C)(OC(=O)c3ccc(Cl)nc3)C(=O)C2=CO1 (stereo unspecified)
[1]
  EC50: > 150 µM (not active)
[2]
  EC50: 18.8 µM (active)

## O=C(NC1CCCCC1)C(c1cccs1)N(C(=O)C(F)(F)F)c1ccccc1 (stereo unspecified)
[3]
  AC50: 2.51 µM (inconclusive)

## CC1(OC(=O)c2cnc3ccccc3n2)C(=O)C=C2C=C(c3ccc(C#N)cc3)OC=C2C1=O (stereo unspecified)
[1]
  EC50: 39.8 µM (active)
[2]
  EC50: 44.9 µM (active)

## COc1cccc(-c2nc(C[S+]([O-])CC(=O)N3CCC4(CC3)OCCO4)c(C)o2)c1 (stereo unspecified)
[4]
  AC50: 14.1 µM (inconclusive)
[3]
  AC50: 25.1 µM (inconclusive)
[5]
  AC50: 12.6 µM (inconclusive)
[6]
  AC50: 31.6 µM (inconclusive)

## O=C1NC(=O)N(CCc2ccccc2)C(=O)/C1=C/NNC(=O)c1ccccc1
[1]
  EC50: 40.2 µM (active)
[2]
  EC50: > 150 µM (not active)

## Cc1[nH][nH]c(=O)c1C(c1ccc(N(C)C)c(Br)c1)c1c(C)[nH][nH]c1=O
[7]
  AC50: 0.467 µM (active)
[8]
  EC50: 0.274 µM (active)

## CC1(OC(=O)c2ccco2)C(=O)C=C2C=C(c3ccsc3)OC=C2C1=O (stereo unspecified)
[1]
  EC50: > 300 µM (not active)
[2]
  EC50: 23.1 µM (active)

## COCC1C2CC[C@H]3C(OCc4ccc(OC)cc4)OC[C@]4(C)[C@H]3C2=C(CN4C(=O)OC(C)(C)C)[C@H](C)C1COC (stereo partly specified)
[3]
  AC50: 15.8 µM (inconclusive)
[6]
  AC50: 15.8 µM (inconclusive)

## COc1ccc(NC(=O)/C(C#N)=C/c2ncc([N+](=O)[O-])n2C)c(OC)c1
[7]
  AC50: 67.5 µM (active)
[8]
  EC50: 15.6 µM (active)

## CCN(CC)C(=O)CNc1ccc(C(F)(F)F)cc1[N+](=O)[O-]
[1]
  EC50: 40 µM (inconclusive)
[2]
  EC50: > 300 µM (not active)

## Cc1ccc(S(=O)(=O)C(C#N)c2nc3ccccc3nc2N2CC(C)OC(C)C2)cc1C (stereo unspecified)
[1]
  EC50: 4.67 µM (inconclusive)
[2]
  EC50: 26.1 µM (inconclusive)

## O=C(c1c[nH]c(C(=O)C(Cl)(Cl)Cl)c1)c1ccccc1Br
[7]
  AC50: 6.31 µM (active)
[8]
  EC50: 6.33 µM (active)

## O=c1[nH]c(=O)n([C@H]2C[C@H](O)[C@H](CO)O2)cc1/C=C\Br
[3]
  AC50: 31.6 µM (inconclusive)
[5]
  AC50: 20 µM (inconclusive)

## CCC(C)(C)NC(=O)c1ccc2c(c1)N(CC(=O)OC)C(=O)C(C)(C)O2
[4]
  AC50: 20 µM (inconclusive)
[3]
  AC50: 0.158 µM (inconclusive)

## CCN1C(=O)/C(=C\c2c[nH]c3ccccc23)S/C1=N\c1ccc(C)cc1
[3]
  AC50: 6.31 µM (inconclusive)

## CN(C)C(=O)c1ccc(-c2cc(NCc3cccnc3)ncn2)cc1
[3]
  AC50: 20 µM (inconclusive)

## CCCCCCOC(=O)c1ccc(OC(=O)c2cccnc2)cc1
[7]
  AC50: 3.69 µM (active)
[8]
  EC50: 3.58 µM (active)

## CCCNS(=O)(=O)c1ccc(CCC(=O)NCc2ccc3c(c2)OCO3)cc1
[1]
  EC50: > 300 µM (not active)
[2]
  EC50: > 300 µM (not active)

## CCN(CC)c1ccc(/C=c2/sc3nnc(-c4ccccc4C)n3c2=O)cc1
[1]
  EC50: > 300 µM (not active)
[2]
  EC50: > 300 µM (inconclusive)

## O=C(O[C@@H]1Cc2c(O)cc(O)cc2O[C@@H]1c1cc(O)c(O)c(O)c1)c1cc(O)c(O)c(O)c1 [EPIGALOCATECHIN GALLATE]
[1]
  EC50: 5.89 µM (inconclusive)
[2]
  EC50: 0.727 µM (active)

## Cc1ccc(/C=C2\C(=O)NC(=S)N(c3ccc(F)cc3)C2=O)o1
[1]
  EC50: > 300 µM (not active)
[2]
  EC50: 43.9 µM (active)

## COc1ccccc1N1CCN(c2nc(-c3ccccc3)cc(C(F)(F)F)n2)CC1
[3]
  AC50: 0.631 µM (inconclusive)

## Clc1ccccc1-c1cc(NCCN2CCOCC2)ncn1
[4]
  AC50: 25.1 µM (inconclusive)
[3]
  AC50: 31.6 µM (inconclusive)

## CC(C)(S)[C@H](N)C(=O)O
[3]
  AC50: 6.31 µM (inconclusive)

## NC(=NO)C1COc2ccccc2O1 (stereo unspecified)
[4]
  AC50: 11.2 µM (inconclusive)
[3]
  AC50: 14.1 µM (inconclusive)
[6]
  AC50: 2.51 µM (inconclusive)

## O=C(NC1CC1)c1cccc(Nc2ccc(-c3ccc4c(c3)OCCO4)nn2)c1
[9]
  EC50: 52.2 µM (active)

## C[C@@H]1c2ccccc2Cn2cc3c(c21)C(=O)c1cccc(O[P@@](=O)(O)OCc2ccccc2)c1C3=O
[3]
  AC50: 3.16 µM (inconclusive)

## N#C/C(=C\c1ccc(N2CCCCC2)o1)C(=O)Nc1cccc(Br)c1
[9]
  EC50: 0.102 µM (active)
